Among the data in patent US7601746B2 (Shionogi & Co., Ltd., priority 2003, dated 2009) are EC50 values, retold here.

This experiment concerns the target T1, human TPO receptor (hTPOR) (Homo sapiens, UniProt P40238).
T1 construct: expressed in transfected cells; host or cells: BaF-B03 (murine IL-3 dependent cell line)
T1 sequence (P40238 26-635): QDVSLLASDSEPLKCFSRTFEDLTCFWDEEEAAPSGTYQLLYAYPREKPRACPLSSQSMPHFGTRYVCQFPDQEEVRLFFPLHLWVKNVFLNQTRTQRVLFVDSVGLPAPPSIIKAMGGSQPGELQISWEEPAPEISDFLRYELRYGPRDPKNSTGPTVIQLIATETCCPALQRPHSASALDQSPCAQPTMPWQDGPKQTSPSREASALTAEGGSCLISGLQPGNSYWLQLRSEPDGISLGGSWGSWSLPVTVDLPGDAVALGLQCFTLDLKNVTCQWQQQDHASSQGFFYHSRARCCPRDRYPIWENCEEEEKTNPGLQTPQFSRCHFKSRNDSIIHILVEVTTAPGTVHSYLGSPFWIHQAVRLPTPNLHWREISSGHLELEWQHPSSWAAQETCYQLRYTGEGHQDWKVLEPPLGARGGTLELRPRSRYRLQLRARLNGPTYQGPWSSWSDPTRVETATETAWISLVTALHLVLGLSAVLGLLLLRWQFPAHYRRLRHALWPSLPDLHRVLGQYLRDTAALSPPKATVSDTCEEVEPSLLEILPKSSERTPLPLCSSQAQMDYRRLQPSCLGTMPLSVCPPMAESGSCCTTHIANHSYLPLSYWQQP
Kind of experiment: Thrombopoietic activity: proliferation of TPO dependent BaF/hTPOR cells (WST-1, absorbance at 450 nm). The settings on record: 20 h + 4 h WST-1, ED50 = half concentration of the concentration showing the maximum thrombopoietic activity. It is filed as cell-based. The essentials:
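Proliferation read-out: WST-1 absorbance at 450 nm after 20 h compound exposure plus 4 h reagent, using IL-3-deprived BaF/hTPOR cells (5×10^4 per well) dependent on human TPO receptor signalling. ED50 defined as half the concentration producing maximal activity.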
On the technique in general: Tetrazolium assays rely on reduction of a dye to a coloured formazan, in cell work by metabolically active cells.

As a reminder, the EC50 is the concentration that produces a half-maximal response. As to `CCCCCCCCC(OC)c1cccc(-c2csc(NC(=O)c3cc(F)c(C=C(C)C(=O)O)c(F)c3)n2)c1F` (stereo not shown) [Compound B28, 3-(2,6-difluoro-4-{4-[2-fluoro-3-(1-methyloxynonyl)phenyl]thiazol-2-ylcarbamoyl}phenyl)-2-methylacrylic acid], where the note is “Table 1”, the EC50 stood at 0.79 nM.

On to “3-{2,6-difluoro-4,5-dihydro-4-[6-(3-ethyloxypropyl)naphtho[1,2-d]thiazol-2-ylcabamoyl]phenyl}-2-methylacrylic acid [Compound A8]”, for which the EC50 (Table 1) came out at 2.9 nM.

Take `CCCOCCCc1cccc(-c2csc(NC(=O)c3cc(Cl)c(C=C(C)C(=O)O)c(Cl)c3)n2)c1F` [Compound B95, 3-(2,6-dichloro-4-{4-[2-fluoro-3-(3-n-propyloxypropyl)phenyl]thiazol-2-ylcarbamoyl)phenyl]-2-methylacrylic acid]: the EC50 (Table 1) is 0.82 nM.

On to `CCOC(CC(C)(C)C)c1cccc(-c2csc(NC(=O)c3cc(Cl)c(C=C(C)C(=O)O)c(Cl)c3)n2)c1F` (stereo not shown) [Compound B62, 3-(2,6-dichloro-4-{4-[2-fluoro-3-(1-ethyloxy-3,3-dimethylbutyl)phenyl]thiazol-2-ylcarbamoyl}phenyl)-2-methylacrylic acid], for which the half-maximal effective concentration (EC50) (Table 1) is 0.76 nM.

For `COc1c(CCCOCC2CCCC2)cccc1-c1csc(NC(=O)c2cc(F)c(/C=C(\C)C(=O)O)c(F)c2)n1` [Compound B1948, (E)-3-(4-{4-[3-(3-cyclopentylmethyloxypropyl)-2-methyloxyphenyl]thiazol-2-ylcarbamoyl}-2,6-difluorophenyl)-2-methylacrylic acid], the EC50 (Table 1) is 10.9 nM.

For `CCCCCCCC(OC)c1cccc(-c2csc(NC(=O)c3cc(Cl)c(C=C(C)C(=O)O)c(Cl)c3)n2)c1F` (stereo not shown) [Compound B69, 3-(2,6-dichloro-4-{4-[2-fluoro-3-(1-methyloxyoctyl)phenyl]thiazol-2-ylcarbamoyl}phenyl)-2-methylacrylic acid], the concentration for a half-maximal effect (EC50) (Table 1) was determined as 0.78 nM.

For the compound `CCCCCC(CCc1cccc(-c2csc(NC(=O)c3cc(Cl)c(C=C(C)C(=O)O)c(Cl)c3)n2)c1F)OC` (stereo not shown) [Compound B73, 3-(2,6-dichloro-4-{4-[2-fluoro-3-(3-methyloxyoctyl)phenyl]thiazol-2-ylcarbamoyl}phenyl)-2-methylacrylic acid], the concentration for a half-maximal effect (EC50) (Table 1) is 1.35 nM.

On to `CCCCCCCCCC(OC)c1cccc(-c2csc(NC(=O)c3cc(Cl)c(/C=C(\C)C(=O)O)c(Cl)c3)n2)c1OC` (stereo not shown) [Compound B1059, (E)-3-(2,6-dichloro-4-{4-[2-methyloxy-3-(1-methyloxydecyl)phenyl]thiazol-2-ylcarbamoyl}phenyl)-2-methylacrylic acid], for which, under “Table 1”, the EC50 was 3.2 nM.

For the compound `CCCC(OCC)c1cccc(-c2csc(NC(=O)c3cc(F)c(C=C(C)C(=O)O)c(F)c3)n2)c1F` (stereo not shown) [Compound B24, 3-(2,6-difluoro-4-{4-[3-(1-ethyloxybutyl)-2-fluorophenyl]thiazol-2-ylcarbamoyl}phenyl)-2-methylacrylic acid], the EC50 (Table 1) stood at 1.97 nM.

Take `CCCCOCCCc1cccc2c1CCc1sc(NC(=O)c3cc(F)c(C=C(C)C(=O)O)c(F)c3)nc1-2` [Compound A5, 3-{4-[6-(3-n-butyloxypropyl)-4,5-dihydronaphto[1,2-d]thiazol-2-ylcabamoyl]-2,6-difluorophenyl}-2-methylacrylic acid]: the concentration giving a half-maximal response (EC50) (Table 1) is 1.91 nM.

With `CCCCOCCc1cccc(-c2csc(NC(=O)c3cc(Cl)c(/C=C(\C)C(=O)O)c(Cl)c3)n2)c1OC` [Compound B1836, (E)-3-(4-{4-[3-(2-butyloxyethyl)-2-methyloxyphenyl]thiazol-2-ylcarbamoyl}-2,6-dichlorophenyl)-2-methylacrylic acid], where the note is “Table 2”, the EC50 was found to be 21 nM.

As for `CCOCCCCOC(CC)c1cccc(-c2csc(NC(=O)c3cc(Cl)c(C=C(C)C(=O)O)c(Cl)c3)n2)c1F` (stereo not shown) [Compound B65, 3-[2,6-dichloro-4-(4-{3-[1-(4-ethyloxybutyloxy)propyl]-2-fluorophenyl]thiazol-2-ylcarbamoyl}phenyl)-2-methylacrylic acid], the EC50 (Table 1) came to 1.04 nM.

Turning to `CC(=Cc1c(F)cc(C(=O)Nc2nc3c(s2)CCc2c(CCCOC(C)C)cccc2-3)cc1F)C(=O)O` [Compound A7, 3-{2,6-difluoro-4-[4,5-dihydro-6-(3-isopropyloxypropyl)naphtho[1,2-d]thiazol-2-ylcabamoyl]phenyl}-2-methylacrylic acid], the EC50 (Table 1) came to 2.26 nM.

As for `CCCCOC(CC)c1cccc(-c2csc(NC(=O)c3cc(Cl)c(C=C(C)C(=O)O)c(Cl)c3)n2)c1F` (stereo not shown) [Compound B82, 3-(4-{4-[3-(1-n-butyloxypropyl)-2-fluorophenyl]thiazol-2-ylcarbamoyl}-2,6-dichlorophenyl)-2-methylacrylic acid], the EC50 (Table 1) amounted to 1.07 nM.

Regarding `CCCOC(CC)c1cccc(-c2csc(NC(=O)c3cc(Cl)c(C=C(C)C(=O)O)c(Cl)c3)n2)c1F` (stereo not shown) [Compound B81, 3-(2,6-dichloro-4-{4-[2-fluoro-3-(1-n-propyloxypropyl)phenyl]thiazol-2-ylcarbamoyl}phenyl)-2-methylacrylic acid], the EC50 (Table 1) stood at 1.39 nM.

For the compound `CCCCCOCc1cccc(-c2csc(NC(=O)c3cc(F)c(/C=C(\C)C(=O)O)c(F)c3)n2)c1OC` [Compound B1884], the EC50 (Table 1) was 16.9 nM.

As to `CCCCCCCCCCCC(OC)c1cccc(-c2csc(NC(=O)c3cc(F)c(C=C(C)C(=O)O)c(F)c3)n2)c1F` (stereo not shown) [Compound B48, 3-(2,6-difluoro-4-{4-[2-fluoro-3-(1-methyloxydodecyl)phenyl]thiazol-2-ylcarbamoyl}phenyl)-2-methylacrylic acid], where the note is “Table 1”, the EC50 amounted to 2.23 nM.

On to `CCCOC(CCC)c1cccc(-c2csc(NC(=O)c3cc(F)c(C=C(C)C(=O)O)c(F)c3)n2)c1F` (stereo not shown) [Compound B34, 3-(2,6-difluoro-4-{4-[2-fluoro-3-(1-n-propyloxybutyl)phenyl]thiazol-2-ylcarbamoyl}phenyl)-2-methylacrylic acid], for which the EC50 (Table 1) was 0.99 nM.

For `CCCCCOC(CC)c1cccc(-c2csc(NC(=O)c3cc(F)c(C=C(C)C(=O)O)c(F)c3)n2)c1F` (stereo not shown) [Compound B19, 3-(2,6-difluoro-4-{4-[2-fluoro-3-(1-n-pentyloxypropyl)phenyl]thiazol-2-ylcarbamoyl}phenyl)-2-methylacrylic acid], the EC50 (Table 1) stood at 0.73 nM.

`CCCCCCCCCC(OC)c1cccc(-c2csc(NC(=O)c3cc(Cl)c(/C=C(\OC)C(=O)O)c(Cl)c3)n2)c1OC` (stereo not shown) [Compound B1437, (Z)-3-(2,6-dichloro-4-{4-[2-methyloxy-3-(1-methyloxydecyl)phenyl]thiazol-2-ylcarbamoyl}phenyl)-2-methyloxyacrylic acid]: under “Table 1”, the EC50 stood at 6.5 nM.

Turning to `CO/C(=C\c1c(Cl)cc(C(=O)Nc2nc(-c3cccc(CCCOCC4CCCC4)c3OC)cs2)cc1Cl)C(=O)O` [Compound B1951, (Z)-3-(2,6-dichloro-4-{4-[3-(3-cyclopentylmethyloxypropyl)-2-methyloxyphenyl]thiazol-2-ylcarbamoyl}phenyl)-2-methyloxyacrylic acid], where the note is “Table 2”, the EC50 is 22.3 nM.

Take `CCOCCCc1cccc2c1CCc1sc(NC(=O)c3cc(Cl)c(C=C(C)C(=O)O)c(Cl)c3)nc1-2` [Compound A10, 3-{2,6-dichloro-4-[4,5-dihydro-6-(3-ethyloxypropyl)naphtho[1,2-d]thiazol-2-ylcabamoyl]phenyl}-2-methylacrylic acid]: where the note is “Table 1”, the EC50 came out at 1.2 nM.
